# US20190133997A1, “ARTEMISININ ANALOG, AND USE, METHOD, AND COMPOSITION FOR PROMOTING LIPID CATABOLISM AND IMPROVING SUGAR METABOLISM” (FUDAN UNIVERSITY, priority 2016, published 2019)
# Columns and labels:
# [1] = system: obese mice induced by high-fat diet; test: Intraperitoneal artemether, random blood glucose, glucose and insulin tolerance in high-fat diet obese mice; format: in vivo, Male C57BL/6J mice; settings: intraperitoneal 20 mg/kg twice a week, eight weeks
# Procedure: (§1) The mice were breeded in the SPF animal laboratory of the Laboratory Animal Center of Fudan University at a room temperature of 21° C.-23° C. with a 12-hour light/dark cycle. […] When the mice were grown to 8-week old, they were randomly divided into a control group and an administration group, with 8 mice in each group. While the mice were fed with a high-fat diet, artemether was injected intraperitoneally. Artemether for intraperitoneal injection was stored at 4° C. in coconut oil at a storage concentration of 6 mg/ml (20 mMol/L), and protected from light. Mice in administration group were injected with artemether at a dose of 20 mg/kg weight. Administration was twice a week for eight weeks.
# (§2) The mice were fasted for 12-16 hours and injected intraperitoneally with glucose injection at a dose of 2 mg/kg weight. At 0 min, 30 min, 60 min, 90 min, and 120 min after injection, blood was collected from the tail vein, and blood glucose was measured with OneTouch ExtraEasy glucometer and OneTouch ExtraEasy blood glucose test strips and the results were recorded.
# (§3) Insulin was injected intraperitoneally at a dose of 0.75 U/kg weight. At 0 min, 15 min, 30 min, 45 min and 60 min after injection, blood was collected from the tail vein, and blood glucose was measured.
# The mice were anesthetized with 10% chloral hydrate and blood was taken from the orbit. The whole blood was centrifuged at 300 rpm for 5 min at 4° C. Serum was taken and the blood glucose levels were measured by automatic biochemical analyzer and calibrator for blood glucose Cfas and kit (Roche).
# BMP4-directed C3H10T1/2 = test: Artemisinin and analogues on BMP4-directed C3H10T1/2 (morphology, Western blot); format: cell-based; settings: concentration shown in FIG. 8, from Day 0 of differentiation; vs control
# Procedure: 4.3.1 Culture and Differentiation of C3H10T1/2 According to Method 2.4.1.
# Artemisinin, artesunate and dihydroartemisinin were stored in DMSO at a storage concentration of 10 mMol/L. The concentration shown in FIG. 8 was added on Day 0 of differentiation. Fresh medium was replaced every two days, and the corresponding concentrations of compounds were added until the cells differentiated to mature.
# The method for extracting C3H10T1/2 cell total protein was the same as 2.4.3;
# Western blot method and catalog number of antibody was the same as 2.4.4.
# high fat-fed mice = test: Subcutaneous artemether, weight gain induced by high-fat diet; format: in vivo, Male C57BL/6J mice; settings: eight weeks
# Procedure: The mice were breeded in the SPF animal laboratory of the Laboratory Animal Center of Fudan University at a room temperature of 21° C.-23° C. with a 12-hour light/dark cycle. […] When the mice were grown to 8-week old, they were randomly divided into a control group and an administration group, with 8 mice in each group. While the mice were fed with a high-fat diet, artemether was injected subcutaneously. Artemether was diluted in PBS at a concentration of […], and injected into bilateral inguinal region, with 200 μl being injected into each side. Mice in control group were injected with the same volume of PBS. Administration was continued for eight weeks and the weight of mice was recorded weekly.
# ob/ob mice = test: Intraperitoneal artemether, weight gain in diabetic ob/ob mice; format: in vivo, Male ob/ob mice; settings: intraperitoneal 20 mg/kg twice a week, eight weeks
# Procedure: The ob/ob mice were breeded in the SPF animal laboratory of the Laboratory Animal Center of Fudan University at a room temperature of 21° C.-23° C. with a 12-hour light/dark cycle. When the mice were grown to 4-week old, they were randomly divided into a control group and an administration group, with 4 mice in each group. The administration group was injected intraperitoneally with artemether. Artemether for intraperitoneal injection was stored at 4° C. in coconut oil at a storage concentration of 6 mg/ml (20 mMol/L), and protected from light. Ob/ob mice in administration group were injected with artemether at a dose of 20 mg/kg weight. Administration was twice a week for eight weeks, and the weight of the mice was recorded weekly.
# [2] = Intraperitoneal artemether, glucose metabolism in healthy lean mice; format: in vivo, Male C57BL/6J mice; settings: intraperitoneal 20 mg/kg twice a week, eight weeks
# Procedure: The mice were breeded in the SPF animal laboratory of the Laboratory Animal Center of Fudan University at a room temperature of 21° C.-23° C. with a 12-hour light/dark cycle. When the mice were grown to 8-week old, they were randomly divided into a control group and an administration group, with 8 mice in each group. Artemether for intraperitoneal injection was stored at 4° C. in coconut oil at a storage concentration of 6 mg/ml (20 mMol/L), and protected from light. Mice in administration group were injected with artemether at a dose of 20 mg/kg weight, and mice in control group were injected with 100 μl coconut oil. Administration was twice a week for eight weeks.
# as §2, with “[…].” for “mg/kg weight.”
# as §3
# [3] = system: obese mice induced by high-fat diet; test: Intraperitoneal artemether, fatty liver in obese mice induced by high-fat diet (HE staining); format: in vivo, Male C57BL/6J mice; settings: intraperitoneal 20 mg/kg twice a week, eight weeks
# Procedure: as §1, with “weeks. The mice were sacrificed by cervical dislocation, and liver tissues of mice were removed and fixed. The histological analysis for liver was commissioned by Shanghai Saige Biotech Co., Ltd., and the histological analysis process included tissue fixation, paraffin embedding, sectioning and HE staining.” for “weeks.”
structure (smiles),measurement,setting,value
CO[C@H]1O[C@@H]2O[C@@]3(C)CC[C@H]4[C@H](C)CC[C@@H]([C@H]1C)[C@@]24OO3 [artemether],glucose tolerance,[1],significantly better than that of mice in control group
same,insulin sensitivity,[1],significantly better than that of mice in control group
same,random blood glucose,[1],significantly lower than that of mice in control group
same,cell morphology of C3H10T1/2,BMP4-directed C3H10T1/2,exhibited brown adipocyte-like characteristics
same,weight of mice,"high fat-fed mice; subcutaneous injection 15 Mol/L in PBS, 200 μl each inguinal side, statistically different after six weeks",significantly lower than that of mice in control group
same,weight gain of mice,high fat-fed mice; subcutaneous injection,significantly slower than that of mice in control group
same,weight gain of ob/ob mice,ob/ob mice,significantly slower than that of mice in control group
same,weight of ob/ob mice,ob/ob mice,"tended to be lower than that of mice in control group, but was not statistically different"
same,glucose tolerance curve,[2],did not differ from that of mice in control group
same,insulin tolerance curve,[2],did not differ from that of mice in control group
same,morphology of the liver cells,[3],almost normal
same,lipid in the liver (fatty liver),[3]; control: obvious lipid accumulation,only a small amount of lipid
